Source: US20090227795A1, “TARGET MOLECULES OF PLADIENOLIDES, COMPOUNDS BINDING TO SUCH TARGET MOLECULES, AND SCREENING METHOD THEREOF” (Eisai R & D Management Co., Ltd., priority 2006, published 2009)

Columns and labels:
HeLa cells = test: Observation of intracellular localization of fluorescent probe and competition assay (microscopy, anti-SC-35 staining); format: cell-based; settings: for fluorescence intensity derived from the fluorescent probe after competition (rank order): 1 μM competitor added 1 hour before 1 μM fluorescent probe, lower intensity = stronger competition
Experimental: 1 μM of the fluorescent probe produced in Example A2 was added to HeLa cells, and the obtained mixture was incubated at 37° C. in an incubator for 1 hour. Thereafter, the medium was removed, and the remaining culture was further cultured for 1 hour in a fresh medium without probes and non-specifically adsorbed compounds were washed. The medium was removed again. The remaining culture was then washed with PBS. Thereafter, the cells were immobilized in 3.7% formaldehyde in PBS.
The immobilized cells were well washed with PBS, and were then permeabilized with 0.5% or 1% Triton X-100 in PBS. Thereafter, blocking was carried out with FBS or a blocking solution, and a primary antibody (anti-SC-35 monoclonal antibody; Sigma; S4045) was added to the resultant, so as to carry out a reaction. The reaction product was washed with PBS, and blocking was carried out again with FBS or a blocking solution. A fluorescent-labeled secondary antibody (TexasRed-labeled; Jackson) was added to the resultant, so as to carry out a reaction. The labeled sample was rapidly rinsed with distilled water, and it was then encapsulated into a Prolong antifade reagent (Molecular Probes). Localization of the fluorescent probe and the anti-SC-35 antibody was observed under a fluorescence microscope (DeltaVision, Applied Precision, Inc.) or a confocal microscope (LSM510; Carl Zeiss).
Furthermore, pladienolides or the derivatives thereof were used in the aforementioned experimental operations to carry out a competition assay. That is, before addition of the fluorescent probe, 1 μM pladienolides or the derivatives thereof were added to the cells, and the obtained mixture was then cultured for 1 hour. Thereafter, the same above operations for immobilization and staining were performed on the culture, followed by observation with a microscope, so as to confirm localization of the fluorescent probe.

SAP130 = target: T1, SAP130 (Homo sapiens, UniProt O75533+Q15393+Q7RTV0); test: Detection of band shift using GFP-fused SAP145 or GFP-fused SAP130 proteins with photoaffinity biotin probe; format: binding; settings: 1.5 μM probe, HeLa cells stably expressing GFP-SAP145 or GFP-SAP130, band shift
T1 construct: expressed in transfected cells
Experimental: SAP145 and SAP130, which were considered to be target molecules, were detected in almost the same position on SDS-PAGE. Thus, strains stably expressing a GFP-fused SAP145 or GFP-fused SAP 130 protein were prepared, and an experiment was then […] out using a photoaffinity biotin probe.
A 1.5 μM photoaffinity biotin probe was added to HeLa cells stably expressing GFP-SAP145, and the obtained mixture was then cultured for 1 hour. After washing the cells with PBS, M-PER (PIERCE) was then added thereto, followed by stirring at 4° C. for 1 hour. Thereafter, 1/10 vol. of 1.5 M NaCl-0.5% Tween 20 solution was added to the reaction solution, and the obtained mixture was then treated with a vortex (10 sec.×3). The resultant was centrifuged at 15,000 rpm at 4° C. for 5 minutes (TOMY MX-15). The thus obtained supernatant was filtrated with a 0.45-μm membrane, and the filtrate was used in the following immunoprecipitation experiment. […]
Moreover, using the same samples. SAP145 and SAP130 were detected with the SAP145 antibody and the SAP130 antibody, respectively.
Furthermore, an agarose resin prepared from probe-untreated cells was treated with a probe in the aforementioned experimental operations. Thereafter, UV irradiation and elution of a protein were carried out by the same operations as above, and it was examined whether or not the same band was detected in the obtained sample. […]

SAP145 or SAP130 = target: T2, SAP145 or SAP130 (Homo sapiens, UniProt O75533+Q15393+Q7RTV0); test: Detection of bound protein by treatment with photoaffinity biotin probe (immunoprecipitation, UV crosslinking, streptavidin-HRP); format: binding; settings: 1.5 μM probe, MDA-MB-468 2000 g-pellet, all antibodies, SDS-PAGE
T2 construct: endogenous in cells; host or cells: MDA-MB-468 (nuclear fraction, immunoprecipitate)
Experimental: 2000 g-pellet was prepared from MDA-MB-468 cells by the method described in Example B1. This pellet was suspended in a CSK buffer (300 mM sucrose, 100 mM NaCl, 3 mM MgCl2, 10 mM PIPES, pH=7.0, protease inhibitor cocktail), and the obtained suspension was then treated with the 1.5 μM photoaffinity biotin probe synthesized in Example A3. The suspension was left at rest at 4° C. for 1 hour, and it was then centrifuged at 2000 g at 4° C. for 10 minutes. The supernatant was removed, and a nuclear fraction was then prepared from the obtained precipitate by the same method as that described in Example B1. Thereafter, an immunoprecipitation solution was prepared by the sable method as that described in Example B4.
UV (365 nm and 302 nm) was applied to the obtained immunoprecipitate (agarose resin), and a crosslinking reaction was carried out. An SDS […] buffer was added to the reaction product, and the obtained mixture was then stirred with a vortex, followed by boiling at 99° C. for 10 minutes, so as to elute the immunoprecipitated proteins. The eluant was subjected to SDS-PAGE and blotting onto a PVDF membrane in accordance with common methods. Thereafter, the resultant was treated with streptavidin-HRP, so as to detect probe-bound proteins. […]

[1] = tested on: human breast cancer cells MDA-MB-468; test: Intracellular distribution of tritium probe compound (cell fractionation, cold inhibition, charcoal assay); format: cell-based
Experimental: The tritiated probe compound produced in Example A1 was added to human breast cancer cells MDA-MB-468 (ATCC HTB-132) cultured on a 15-cm dish (>80% confluent), resulting in a concentration of 3 to 30 nM. The obtained mixture was then cultured in an incubator at 37° C. for 1 hour. After removing the medium, the culture was then washed with a Hanks' balanced salt solution (10 ml×2). Then, 3 ml of a 10% glycerol hypotonic buffer (10% glycerol, 20 mM NaCl, 1 mM EDTA, 10 mM Tris-HCl, pH=7.8, protease inhibitor cocktail) was added to the resultant. The obtained mixture was left at rest for a while, and the cells were then recovered using a cell scraper. A cell lysate was prepared using a Dounce homogenizer.
The lysate was centrifuged at 2,000 g at 4° C. for 10 minutes, so as to obtain a supernatant (2000 g-sup.) and a precipitate (2000 g-pellet). 2000 g-sup. was further centrifuged at 100,000 g at 4° C. for 60 minutes, so as to obtain a cytosol fraction as a supernatant, and a membrane fraction as a precipitate. 2000 g-pellet was suspended in 0.5 M NaCl, and the suspension was then left at rest for 30 minutes under cooling on ice, so as to elute a nuclear protein. Thereafter, centrifugation was carried out at 3,000 g at 4° C. for 10 minutes, so as to obtain a nuclear fraction as a supernatant, and a nuclear pellet as a precipitate.
The radioactivity of a tritium probe existing in each fraction was measured by the following method. That is, each of the cytosol fraction and the nuclear fraction was uniformly mixed with Hionic-Fluor (Perkin Elmer). On the other hand, each of the membrane fraction and the nuclear pellet was dissolved in Soluene-350 (Packard) (1 ml), and the obtained solution was then mixed with Hionic-Fluor. The radioactivity of each mixture was measured with a liquid scintillation counter.
At the same time, a radioisotope-non-labeled-pladienolide was used to carry out a cold inhibition experiment. That is, the cells were treated with a pladienolide having a concentration (0.15 to 1.5 μM) that was 50 times higher than the tritium probe treatment concentration, and they were then cultured at 37° C. in an incubator for 1 hour. Thereafter, the culture was treated with a tritium probe, and each fraction was prepared. Then, the radioactivity thereof was measured.
That is, 1/10 vol. (volume ratio) of a 10% activated charcoal suspension was added to each of the cytosol fraction and the nuclear fraction, followed by a treatment with a vortex for several seconds. The resultant was centrifuged at 15,000 rpm at 4° C. for 5 minutes (TOMY mini MX-15), and the radioactivity of the supernatant was measured in the same manner as that described above.

U2 snRNP complex = target: T3, U2 snRNP complex (Homo sapiens, UniProt O75533+Q15393+Q7RTV0); test: Immunoprecipitation experiment of nuclear fraction prepared from tritium probe-treated cells; format: binding; settings: 30 nM probe, MDA-MB-468 nuclear fraction, TMG, U1A/U2B″, SM BB′ & D1, SAP155, SAP145, cyclin E antibodies
T3 construct: endogenous in cells; host or cells: MDA-MB-468
Experimental: MDA-MB-468 cells were cultured in the presence of a 30 nM tritium probe for 1 hour. Thereafter, a nuclear fraction was prepared by the same method as that described in Example B1. A dilution buffer was added to the nuclear fraction to a final concentration of 0.15 M NaCl, 0.05% CA-630 and 40 mM tris-HCl (pH=7.5), so as to prepare an immunoprecipitation solution.
To this solution, each of antibodies reacting with splicing factors, transcriptional factors, or molecules associated with such factors were added to a concentration of 1 μg/ml. The obtained mixture was slowly stirred for approximately 12 hours in a low-temperature chamber of 4° C., using a sample rotator. Thereafter, 20 μl of 50% Protein A/G-agarose conjugate suspension was added to the reaction solution, and the obtained mixture was further stirred for 2 hours in the low-temperature chamber.
The agarose resin was recovered, and it was then washed with a washing solution (0.15 M NaCl, 0.05% CA-630, 20 mM tris-HCl, pH=7.5). An SDS sample buffer was added to the resultant solution, and the obtained mixture was then stirred with a vortex. The reaction solution was boiled at 99° C. for 10 minutes, so as to elute the immunoprecipitated protein. The eluant was mixed homogeneously with Hionic-Fluor, and the radioactivity of a tritium probe existing in the eluant was then measured with a liquid scintillation counter.

CCC(O)C(C)C1OC1CC(C)C=CC=C(C)C1OC(=O)CC(O)CCC(C)(O)C(OC(=O)NCCOCCOCCNC(=O)CCCCC2=[N+]3C(=Cc4c(C)cc(C)n4[B-]3(F)F)C=C2)C=CC1C (centres unmarked) [fluorescent probe, 7-(N-(2-(2-(2-(N-(5-(5,5-difluoro-7,9-dimethyl-5H-dipyrrolo[1,2-c:2′,1′-f][1,3,2]diazaborinin-4-ium-5-uid-3-yl)pentanoyl)amino)ethoxy)ethoxy)ethyl)carbamoyloxy)-3,6,21-trihydroxy-6,10,12,16,20-pentamethyl-18,19-epoxytricosa-8,12,14-trien-11-olide]
intracellular localization of fluorescent probe (HeLa cells; 1 μM probe, 1 hour, co-staining with anti-SC-35 antibody): mainly localized in granular structures in the nuclei

CCC(O)C(C)C1OC1CC(C)/C=C/C=C(\C)C1OC(=O)CC(O)CCC(C)(O)C(OC(=O)NCCCC[C@H](NC(=O)c2ccc(C3(C(F)(F)F)NN3)cc2)C(=O)N(C)CCN(C)C(=O)CCCC[C@@H]2SC[C@@H]3NC(=O)N[C@@H]32)/C=C/C1C (stereo partly drawn) [photoaffinity biotin probe, (8E,2E,14E)-3,621-trihydroxy-6,10,12,16,20-pentamethyl-7-(N-((5S)-6-(N-methyl-N-(2-(N-methyl-N-(5-((3aS,4S,6aR)-2-oxohexahydro-1H-thieno[3,4-d]imidazol-4-yl)pentanoyl)amino)ethyl)amino)-6-oxo-5-(N-(4-(3-(trifluoromethyl)-3H-diaziren-3-yl)benzoyl)amino)hexyl)carbamoyloxy)-18,19-epoxytricosa-8,12,14-trien-11-olide]
protein to which the probe has bound (SAP130): not SAP145 but SAP130 | position of band of probe-bound protein (SAP145 or SAP130): 130-140 kDa

CCC(O)C(C)C1OC1CC(C)/C=C/C=C(\C)C1OC(=O)CC(O)CCC(C)(O)C(O)/C=C/C1C (centres unmarked) [pladienolide A]
fluorescence intensity derived from the fluorescent probe after competition (rank order) (HeLa cells): pladienolide A >non-labeled tritium probe compound >pladienolides B and D

CCC(O)C(C)C1OC1CC(C)/C=C/C=C(\C)C1OC(=O)CC(O)CCC(C)(O)C(OC(C)=O)/C=C/C1C (centres unmarked) [pladienolide B, reference compound]
radioactivity of tritium probe after pre-treatment with non-labeled pladienolide (cold inhibition) ([1]; pre-treatment at 50 times the tritium probe concentration (0.15 to 1.5 μM), 1 hour): almost completely disappeared | fluorescence intensity derived from the fluorescent probe after competition (rank order) (HeLa cells): pladienolide A >non-labeled tritium probe compound >pladienolides B and D

(8E,12E,14E)-7-(N—[G-^3H]ethylcarbamoyloxy)-3,6,21-trihydroxy-6,10,12,16,20-pentamethyl-18,19-epoxytricosa-8,12,14-trien-11-olide [tritium probe]
radioactivity of tritium probe co-immunoprecipitated with antibodies (U2 snRNP complex): specific radioactivity was observed | radioactivity of tritium probe existing in each cell fraction ([1]; MDA-MB-468 cells, probe 3 to 30 nM, 1 hour, cytosol, membrane, nuclear fraction, nuclear pellet): highest radioactivity of the tritium probe was detected in the nuclear fraction | radioactivity of the cytosol fraction after treatment with activated charcoal ([1]; charcoal assay, cytosol fraction): almost all the radioactivity of the cytosol fraction disappeared | radioactivity in the nuclear fraction after treatment with activated charcoal ([1]; charcoal assay, nuclear fraction): did not disappear

pladienolide D
fluorescence intensity derived from the fluorescent probe after competition (rank order) (HeLa cells): pladienolide A >non-labeled tritium probe compound >pladienolides B and D
